Assay results as given in patent US5025099A, “(3-amino-1-propynyl)methylthiothiophene derivatives” (American Cyanamid Company, priority 1990, dated 1991).
Several values for one entry are separate records, joined by “and”; a condition that tells them apart may be missing. Equal values may be shown once. Where a name gives a salt, the structure may show the parent alone.

Experiments:
[1] = target: muscarinic cholinergic receptor; experiment: [^3 H] Quinuclidinyl Benzilate (^3 H-QNB) Binding Assay, rat cerebral cortex homogenate; conditions: pH 7.4
[2] = target: muscarinic cholinergic receptor; experiment: [^3 H]-Cis-methyldioxolane (^3 H-CD) Binding Assay (High Affinity), rat cerebral cortex homogenate; conditions: 1.0 nM ^3 H-CD, 25° C., 120 minutes
[3] = test system: muscarinic sites; conditions: cited from earlier work
[4] = test system: SDAT patients; conditions: compared to the anticholinesterase inhibitor physostigmine; cited from earlier work
[5] = rat cerebral cortex, 0.25 nM ^3 H-QNB, 25° C., hydrochloride
[6] = rat cerebral cortex, 0.25 nM ^3 H-QNB, 25° C.

IC50 [1, 5] [µM] | IC50 ([2]; pH 7.4, hydrochloride) [µM] | IC50 [1, 6] | IC50 ([2]; pH 7.4) | Structure (SMILES) | further results
2.2 | 0.0325 | – | – | CSc1sccc1C#CCN1CCCCC1 [1-[3-[2-(Methylthio)-3-thienyl]-2-propynyl]piperidine, hydrochloride] | –
– | – | 1.14 µM | 0.0311 µM | CSc1sccc1C#CCN1CCCCC1 [1-[3-[2-(Methylthio)-3-thienyl]-2-propynyl]piperidine] | –
0.81 | – | – | – | CSc1sccc1C#CCN1CCCC1 [1-[3-[2-(Methylthio)-3-thienyl]-2-propynyl]pyrrolidine, hydrochloride] | –
– | – | 0.92 µM | 0.031 µM | CSc1sccc1C#CCN1CCCC1 [1-[3-[2-(Methylthio)-3-thienyl]-2-propynyl]pyrrolidine] | –
2.1 | 0.044 | – | – | CSc1ccsc1C#CCN1CCCCC1 [1-[3-[3-(Methylthio)-2-thienyl]-2-propynyl]piperidine, hydrochloride] | –
– | – | 1.97 µM | 0.122 µM | CSc1ccsc1C#CCN1CCCCC1 [1-[3-[3-(Methylthio)-2-thienyl]-2-propynyl]piperidine] | –
1.87 | 0.044 | – | – | CSc1ccsc1C#CCN1CCCC1 [1-[3-[3-(Methylthio)-2-thienyl]-2-propynyl]pyrrolidine, hydrochloride] | –
– | – | 1.38 µM | 0.016 µM | CSc1ccsc1C#CCN1CCCC1 [1-[3-[3-(Methylthio)-2-thienyl]-2-propynyl]pyrrolidine] | –
– | – | 5.35 µM and 5.88 µM | 0.998 µM and 0.53 µM | CSc1cscc1C#CCN1CCCCC1 [1-[3-[4-(Methylthio)-3-thienyl]-2-propynyl]piperidine] | –
2.27 | 0.11 | – | – | CSc1cscc1C#CCN1CCCC1 [1-[3-[4-(Methylthio)-3-thienyl]-2-propynyl]pyrrolidine, hydrochloride] | –
– | – | 3.34 µM | 0.366 µM | CSc1cscc1C#CCN1CCCC1 [1-[3-[4-(Methylthio)-3-thienyl]-2-propynyl]pyrrolidine] | –
– | – | – | – | CC(=O)N(C)C(C)C#CCN1CCCC1 (stereo not shown) [BM-5, N-methyl-N-(1-methyl-4-pyrrolidino-2-butynyl)acetamide] | activity at muscarinic sites ([3]; Eur. J. Med. Chem., 1982, 17, 317): antagonist at some muscarinic sites while being an agonist at most others; postsynaptic cholinergic activity ([3]; postsynaptic): postsynaptic partial cholinergic agonist; presynaptic cholinergic activity ([3]; presynaptic): presynaptic cholinergic antagonist
– | – | 3.44 µM | 0.0523 µM | CSc1sccc1C#CC[N+](C)(C)C [N,N,N-Trimethyl-3-[2-(methylthio)-3-thienyl]-2-propyn-1-aminium, iodide] | –
– | – | 5.98 µM | 0.00592 µM | CSc1ccsc1C#CC[N+](C)(C)C [N,N,N-Trimethyl-3-[3-(methylthio)-2-thienyl]-2-propyn-1-aminium, iodide] | –
23.3 | 0.969 | – | – | CSc1sccc1C#CCN(C)C [N,N-Dimethyl-3-[2-(methylthio)-3-thienyl]-2-propyn-1-amine, hydrochloride] | –
– | – | 21.4 µM | 0.942 µM | CSc1sccc1C#CCN(C)C [N,N-Dimethyl-3-[2-(methylthio)-3-thienyl]-2-propyn-1-amine] | –
40.4 | 1.24 | – | – | CSc1ccsc1C#CCN(C)C [N,N-Dimethyl-3-[3-(methylthio)-2-thienyl]-2-propyn-1-amine, hydrochloride] | –
– | – | 35 µM | 1.12 µM | CSc1ccsc1C#CCN(C)C [N,N-Dimethyl-3-[3-(methylthio)-2-thienyl]-2-propyn-1-amine] | –
67.5 | 1.23 | – | – | CSc1cscc1C#CCN(C)C [N,N-Dimethyl-3-[4-(methylthio)-3-thienyl]-2-propyn-1-amine, hydrochloride] | –
– | – | 239 µM | 4.83 µM | CSc1cscc1C#CCN(C)C [N,N-Dimethyl-3-[4-(methylthio)-3-thienyl]-2-propyn-1-amine] | –
– | – | – | – | COC(=O)C1=CCCN(C)C1 [arecoline] | improvement in SDAT patients [4]: more-consistent improvement

Structure (SMILES) | IC50 [1, 5] [µM] | IC50 ([2]; pH 7.4, hydrochloride) [µM] | IC50 [1, 6] | IC50 ([2]; pH 7.4) | further results
CSc1cscc1C#CC[N+](C)(C)C [N,N,N-Trimethyl-3-[4-(methylthio)-3-thienyl]-2-propyn-1-aminium, iodide] | – | – | – | 0.121 µM | IC50 [1]: 9.05 µM
